# Source: patent US20200071316A1, “ACTIVATORS OF THE RETINOIC ACID INDUCIBLE GENE "RIG-I" PATHWAY AND METHODS OF USE THEREOF” (Kineta Immuno-Oncology LLC, priority 2018, published 2020)
# Marks after values point to notes of the source that are not given here.
# Key:
# [1] = test system: RIG-I deficient CT26 RIG-1−/− cells; test: CXCL10 secretion in RIG-I deficient CT26 RIG-1−/− cells (ELISA); assay type: cell-based, murine; details: 24 h
# Experimental: (§1) The CT26 murine colon carcinoma cell line (ATCC) was used to evaluate the induction of CXCL10 secretion. CXCL10 is an important chemokine in tumor immune biology that recruits tumor-specific T cells to the tumor. To confirm that compound-mediated CXCL10 production was RIG-I specific, RIG-I deficient CT2-RIG-1−/− cells were generated by Kineta using CRISPR technology.
# (§2) CT26 cells were seeded at a density of 1×10^4 cells per well on a 96-well tissue culture plate in 100 μL of cell culture and cells were incubated at 37° C. and 5% CO2 for 24 hr. Next, CT26 cells were treated with compounds at the indicated concentrations. CXCL10 was quantified by ELISA from supernatants taken 24 h after compound stimulation by use of the CXCL10 DuoSet ELISA kit (Cat # DY466, R&D, Minneapolis, Minn., USA) according to the manufacturer's instructions.
# (§3) CXCL10 secretion by CT26 cells in response to compounds (in an amount of 5 to 20 μM) of the present disclosure is shown in Table 8. The compound-induced CXCL10 production was RIG-I dependent, since none of the compounds mediated CXCL10 secretion in RIG-I deficient CT26 RIG-1−/− cells. The compounds (10 μM, *20 μM, **5 μM) are indicated in the table as follows: “−” indicates less than 100 pg/mL; “+” indicates 100-199 pg/mL; “++” indicates 200-399 pg/mL; “+++” indicates 400-799 pg/mL; “++++” indicates 800 to 1599 pg/mL; “+++++” indicates greater than or equal to 1600 pg/ml.
# [2] = test system: THP1-Lucia ISG IRF3 −/− cells; test: IRF3-deficient THP1-Lucia ISG IRF3 −/− reporter assay (counter-screen); assay type: cell-based; details: Homo sapiens, 18 h after stimulation, read-out: THP1 ISG IRF3 −/−: fold increase of luciferase activity over background; for fold induction at 10 µM: 10 μM compound; for fold induction at 5 µM: 5 μM compound (**)
# Experimental: (§4) The promotor was comprised of five IFN-stimulated response elements (ISRE) fused to an ISG54 minimal promotor which is unresponsive to NF-kB or AP-1 pathways. […] The IRF3-deficient THP1-Lucia™ ISG IRF3 −/− reporter cell line was generated by CRISPR technology from the parent THP1-Lucia™ ISG reporter cell line.
# (§5) 5 THP1-Lucia™ ISG cells and IRF3-deficient THP1-Lucia™ ISG IRF3 −/− cells were differentiated with PMA (100 ng/ml) and stimulated with compounds at the indicated concentrations (5 to 20 μM), positive control, or not treated (background). Luciferase secretion was quantified using the QUANTI-Luc luciferase assay system (InvivoGen) 18 h after stimulation. Data are shown as fold increase luciferase activity over background in Table 7 and represent the IRF3-dependent ISG54 promotor activity by the THP1-Lucia™ ISG cells in response to compounds. […] The fold increase of compounds (10 μM, *20 μM, **5 μM) induced IRF3 dependent luciferase activity is indicated as follows: “−” indicates less than 2.4 fold increase; “+” indicates a 2.4-4.9 fold increase; “++” indicates a 5-9.9 fold increase; “+++” indicates a 10-19 fold increase; “++++” indicates a 20-39 fold increase; “+++++” indicates greater than or equal to 40 fold increase.
# [3] = test system: IRF3 signaling pathway (IRF-inducible ISG54 promotor) in THP1-Lucia ISG cells; test: THP1-Lucia ISG reporter assay: induction of IRF3-dependent luciferase activity; assay type: cell-based; details: Homo sapiens, PMA-differentiated cells, 18 h after stimulation, read-out: THP1 ISG: fold increase of IRF3-dependent luciferase activity over background; for fold induction at 10 µM: 10 μM compound
# Experimental: The compounds were evaluated in the THP1-Lucia™ ISG (interferon stimulated genes) reporter assay to determine if the compounds activate the IRF3 signaling pathway. The THP1-Lucia™ cells (InvivoGen) express the secreted luciferase (Lucia) reporter gene under the control of an IRF-inducible promotor. The reporter cell line was developed from human monocytic leukemia THP-1 cells.
# as §4, §5
# [4] = test system: CXCL10 secretion by CT26 cells; test: RIG-I dependent CXCL10 secretion by CT26 colon carcinoma cells (ELISA); assay type: cell-based, murine; details: 24 h
# Experimental: as §1, §2, §3
SMILES,CXCL10 secretion by CT26 RIG-I −/− cells ([1]; 10 μM compound),fold induction at 10 µM [2],fold induction at 10 µM [3],CXCL10 secretion by CT26 cells ([4]; 10 μM compound),fold induction at 5 µM [2],CXCL10 secretion by CT26 RIG-I −/− cells ([1]; 5 μM compound (**)),CXCL10 secretion by CT26 cells ([4]; 5 μM compound (**)),fold induction at 5 µM ([3]; 5 μM compound (**))
"O=C(Nc1nc2ccc(S(=O)(=O)N3CCCC3)cc2s1)c1ccc(-c2cccnc2)cc1 [Example 53, 4-(pyridin-3-yl)-N-[6-(pyrrolidine-1-sulfonyl)-1,3-benzothiazol-2-yl]benzamide]",− (“−” indicates less than 100 pg/mL),< 2.4,2.4 to 4.9,− (“−” indicates less than 100 pg/mL),–,–,–,–
"O=C(Nc1nc2ccc(C(=O)Nc3c(Cl)cccc3Cl)cc2s1)c1ccc2ncccc2c1 [Example 15, N-{6-[(2,6-dichlorophenyl)carbamoyl]-1,3-benzothiazol-2-yl}quinoline-6-carboxamide]",− (“−” indicates less than 100 pg/mL),< 2.4,20 to 39,++++ (“++++” indicates 800 to 1599 pg/mL),–,–,–,–
"O=C(Nc1nc2ccc(S(=O)(=O)N3CCCC3)cc2s1)c1cc2ccccc2cc1OCCN1CCOCC1 [Example 29, 3-[2-(morpholin-4-yl)ethoxy]-N-[6-(pyrrolidine-1-sulfonyl)-1,3-benzothiazol-2-yl]naphthalene-2-carboxamide]",− (“−” indicates less than 100 pg/mL),< 2.4,≥ 40,++++ (“++++” indicates 800 to 1599 pg/mL),–,–,–,–
"O=C(Nc1nc2ccc(S(=O)(=O)N3CCC3)cc2s1)c1cc2c(cc1OCCN1CCOCC1)OCO2 [Example 61, N-[6-(azetidine-1-sulfonyl)-1,3-benzothiazol-2-yl]-6-[2-(morpholin-4-yl)ethoxy]-2H-1,3-bezodioxole-5-carboxamide]",− (“−” indicates less than 100 pg/mL),< 2.4,5 to 9.9,++ (“++” indicates 200-399 pg/mL),–,–,–,–
"O=C(Nc1nc2ccc(S(=O)(=O)N3CC[C@@H](O)C3)cc2s1)c1cc2ccccc2cc1OCCCCN1CCOCC1 [Example 78, N-(6-{[(3R)-3-hydroxypyrrolidin-1-yl]sulfonyl}-1,3-benzothiazol-2-yl)-3-[4-(morpholin-4-yl)butoxy]naphthalene-2-carboxamide]",− (“−” indicates less than 100 pg/mL),–,≥ 40,+++++ (“+++++” indicates greater than or equal to 1600 pg/ml),< 2.4,–,–,–
"COC(=O)c1ccc2nc(NC(=O)c3ccc4ccccc4c3)sc2c1 [Example 2, methyl 2-(naphthalene-2-amido)-1,3-benzothiazole-6-carboxylate]",− (“−” indicates less than 100 pg/mL),< 2.4,≥ 40,++++ (“++++” indicates 800 to 1599 pg/mL),–,–,–,–
"O=C(Nc1nc2ccc(S(=O)(=O)N3CCC3)cc2s1)c1cc2c(cc1OCCCCN1CCOCC1)OCO2 [Example 64, N-[6-(azetidine-1-sulfonyl)-1,3-benzothiazol-2-yl]-6-[4-(morpholin-4-yl)butoxy]-2H-1,3-benzodioxole-5-carboxamide]",− (“−” indicates less than 100 pg/mL),< 2.4,10 to 19,+++ (“+++” indicates 400-799 pg/mL),–,–,–,–
"O=C(Nc1nc2ccc(NC(=O)C3CCCCC3)cc2s1)c1cc2ccccc2cc1OCCN1CCOCC1 [Example 21, N-(6-cyclohexaneamido-1,3-benzothiazol-2-yl)-3-[2-(morpholin-4-yl)ethoxy]naphthalene-2-carboxamide]",–,< 2.4,5 to 9.9,–,–,−** (“−” indicates less than 100 pg/mL),+** (“+” indicates 100-199 pg/mL),–
"CS(=O)(=O)c1ccc2nc(NC(=O)c3cc4ccccc4cc3OCCCCN3CCOCC3)sc2c1 [Example 45, N-(6-methanesulfonyl-1,3-benzothiazol-2-yl)-3-[4-(morpholin-4-yl)butoxy]naphthalene-2-carboxamide]",− (“−” indicates less than 100 pg/mL),< 2.4,5 to 9.9,++++ (“++++” indicates 800 to 1599 pg/mL),–,–,–,–
"O=C(Nc1nc2ccc(C(=O)Nc3c(Cl)cccc3Cl)cc2s1)c1ccc2ccccc2c1 [Example 13, N-(2,6-dichlorophenyl)-2-(naphthalene-2-amido)-1,3-benzothiazole-6-carboxaraide]",− (“−” indicates less than 100 pg/mL),< 2.4,20 to 39,+++++ (“+++++” indicates greater than or equal to 1600 pg/ml),–,–,–,–
"O=C(Nc1cc2ccc(S(=O)(=O)N3CCCC3)cc2s1)c1cc2ccsc2cc1OCCN1CCOCC1 [Example 76, 6-[2-(morpholin-4-yl)ethoxy]-N-[6-(pyrrolidine-1-sulfonyl)-1-benzothiophen-2-yl]-1-benzothiophene-5-carboxamide]",− (“−” indicates less than 100 pg/mL),< 2.4,20 to 39,++++ (“++++” indicates 800 to 1599 pg/mL),–,–,–,–
"O=C(Nc1nc2ccc(S(=O)(=O)N3CCC3)cc2s1)c1cc2ccccc2cc1OCCCCN1CCOCC1 [Example 36, N-[6-(azetidine-1-sulfonyl)-1,3-benzothiazol-2-yl]-3-[4-(morpholin-4-yl)butoxy]naphthalene-2-carboxamide]",− (“−” indicates less than 100 pg/mL),< 2.4,10 to 19,+++ (“+++” indicates 400-799 pg/mL),–,–,–,–
"CN(C)S(=O)(=O)c1ccc2nc(NC(=O)c3cc4ccccc4cc3OCCN3CCOCC3)sc2c1 [Example 30, N-[6-(dimethylsulfamoyl)-1,3-benzothiazol-2-yl]-3-[2-(morpholin-4-yl)ethoxy]naphthalene-2-carboxamide]",− (“−” indicates less than 100 pg/mL),< 2.4,10 to 19,+++ (“+++” indicates 400-799 pg/mL),–,–,–,–
"O=C(Nc1nc2ccc(NC(=O)C3CCCCC3)cc2s1)c1cc2ccccc2cc1OCCCCN1CCOCC1 [Example 22, N-(6-cyclohexaneamido-1,3-benzothiazol-2-yl)-3-[4-(morpholin-4-yl)butoxy]naphthalene-2-carboxamide]",–,–,–,–,< 2.4,−** (“−” indicates less than 100 pg/mL),+** (“+” indicates 100-199 pg/mL),2.4 to 4.9
O=C(Nc1cc2ccc(S(=O)(=O)N3CCCC3)cc2s1)c1cc2c(cc1OCCN1CCOCC1)OCO2 [Example 75],− (“−” indicates less than 100 pg/mL),< 2.4,5 to 9.9,++ (“++” indicates 200-399 pg/mL),–,–,–,–
"O=C(Nc1nc2cccc(C(F)(F)F)c2s1)c1ccc2ccccc2c1 [Example 11, N-[7-(trifluoromethyl)-1,3-benzothiazol-2-yl]naphthalene-2-carboxamide]",− (“−” indicates less than 100 pg/mL),< 2.4,10 to 19,++ (“++” indicates 200-399 pg/mL),–,–,–,–
